The structures appear in SMILES notation. Entries after “also recorded” stand apart in the source; their conditions may differ. Where two headings read alike, the source gives them in different places.

The record followed here is PMC11054132, “Neuroprotective Effects of Chemical Constituents of Leaves of Euonymus hamiltonianus Wall” (Plants, 2024).

Series [1] concerns Aβ42 production in APPsw-transfected HeLa cells. As to the kind of experiment: Aβ42 production (ELISA kit) in APPsw-transfected HeLa cells. It counts as cell-based. The settings on record: for IC50: 8 h, APPsw-transfected HeLa cells, means ± SDs (n = 3). As to the method: APPsw-transfected HeLa cells were cultured with the isolated compounds or DMSO in Dulbecco’s modified Eagle medium (DMEM, Welgene, Gyeongsan-si, Republic of Korea) for 8 h, and then the cell culture supernatants were collected for the following analyses. For the detection of Aβ secretion, kits for Aβ42 (KHB3442) and Aβ40 (KHB3482) were purchased from the Invitrogen Company and used according to the supplier’s instructions.
(§1) For the Aβ-Hela-APPsw model, Hela cells were stably transfected with an APP carrying the Swedish mutation (APPsw) using BioT (Bioland Scientific LLC, Paramount, CA, USA) according to the manufacturer’s instructions, which was provided by Prof. Tae-Wan Kim (Department of Pathology, Columbia University of Medical Center, New York, NY 10032, USA). APPsw-transfected HeLa cells were grown in DMEM supplemented with 10% fetal bovine serum (FBS; Thermo Fisher Scientific, Lafayette, CA, USA), 1% penicillin/streptomycin (Thermo Fisher Scientific, Lafayette, CA, USA), 260 μg/mL Zeocin, and 400 μg/mL G418. The cells were maintained at 37 °C under a humidified atmosphere of 5% CO2. The stock sample solution was dissolved in DMSO and kept at −20 °C and diluted to the final concentration in fresh medium before each experiment. For the cell viability assay, Hela cells were cultured in 96-well plates for 24 h and then various concentrations of comp 27 (0–10 μM) were treated for 12 h. The EZ-Cytox kit (DAEILLAB, Cheongwon, Republic of Korea) was applied to detect the cell viability, following the manufacturer’s instructions, and measurements were taken by a microplate reader (BIO-TEK® Dower-Wave; BioTek, Winooski, VT, USA) under absorbance at 450 nm. The results were presented as the percentage of MTT reduction, compared with the control group as 100%. For the LPS-induced microglia model, the BV-2 mouse microglia cell line was provided by Prof. Lee Sung Jung’s research team in the College of Medicine, Seoul National University, and was cultured in DMEM-F12 with 5% FBS and 1% penicillin/streptomycin at 37 °C under a humidified atmosphere containing 5% CO2. And the cell viability assay was performed using the Aβ-Hela-APPsw model.

Series [2] concerns NO production in LPS-activated BV-2 microglial cells. As to the kind of experiment: NO production (Griess reaction) in LPS-stimulated BV-2 microglial cells. It counts as cell-based, mouse. The settings on record: for IC50: Mus musculus, BV-2, BV-2 microglial cells, pretreated 1 h, 100 ng/mL LPS (footnote 24 h; text 12 h), means ± SDs (n = 3). The method, then:
The anti-inflammatory effects of the fourteen compounds (1–14) isolated from E. hamiltonianus were evaluated in activated BV-2 microglial cells by the production of NO and proinflammatory cytokines. […] […] The compounds were continuously assessed to determine whether they suppressed the expression of iNOS and COX-2 in LPS-stimulated BV-2 microglial cells. The cells were stimulated with LPS in the presence of these compounds at various concentrations, and the expression levels of iNOS and COX-2 were determined by Western blotting. […] Thus, compound 3 may be considered a potential anti-inflammatory agent.
as §1, with “For the cell viability assay, Hela cells were cultured in 96-well plates for 24 h and then various concentrations of comp 27 (0–10 μM) were treated for 12 h.” left out
[…] The media were collected and centrifuged at 13,000 rpm for the removal of dead cells. The supernatants were collected and mixed with an equal volume (50 μL) of Griess reagents (1% sulfanilamide and N-(1-naphthyl) ethylenediamine dihydrochloride in 2.5% H3PO4) for 5 min at room temperature, and the Nitric Oxide concentration was measured at 540 nm using a microplate reader and compared with the sodium nitrite standard curve.

Series [3] can be described thus: Cytotoxicity (MTT assay) in BV-2 microglial cells. It counts as cell-based. The settings on record: mouse. Background: Formazan colour is commonly taken as a measure of viable cells.
The test system of another series is iNOS. As to the kind of experiment: Western blot of LPS-induced iNOS expression in BV-2 microglial cells. Format: cell-based, mouse. The settings on record: LPS-stimulated BV-2 microglial cells, various concentrations (1.0, 2.0, 4.0 µM). The method, then: The anti-inflammatory effects of the fourteen compounds (1–14) isolated from E. hamiltonianus were evaluated in activated BV-2 microglial cells by the production of NO and proinflammatory cytokines. BV-2 microglial cells were stimulated with 0.1 µg/mL LPS for 12 h in the presence of the compounds at various concentrations, and the levels of NO in the culture supernatants were measured using Griess reactions. […] The compounds were continuously assessed to determine whether they suppressed the expression of iNOS and COX-2 in LPS-stimulated BV-2 microglial cells. The cells were stimulated with LPS in the presence of these compounds at various concentrations, and the expression levels of iNOS and COX-2 were determined by Western blotting. […] Thus, compound 3 may be considered a potential anti-inflammatory agent.
The total protein samples (10 μg) were loaded in sodium dodecyl sulfate polyacrylamide gel electrophoresis (SDS–PAGE) gels with 10% acrylamide/bis and transferred to polyvinylidene difluoride membranes (Millipore, Burlington, MA, USA). Then, the membranes were blocked with 5% silky milk dissolved in TBST (Tris Buffered saline Tween) for 1 h under room temperature and incubated overnight at 4 °C with specific primary antibodies (1:1000). After being washed with TBST, the membranes were incubated with secondary HRP-conjugated IgG (1:2000) at room temperature for 1 h and visualized using enhanced chemiluminescence (ECL) reagents (Thermo Fisher Scientific, Lafayette, CA, USA). Densitometry analysis of the bands was performed with the fusion solo system (Vilber, Paris, France). The band densities were determined as the intensities of protein by TotalLab TL120 software v2009 (TotalLab, Newcastle, UK).
A general note: In western blotting, separated proteins are transferred to a membrane and probed.

Series [4] can be described thus: Storage stability of isolated compound by LC-MS. The settings on record: stored 27 days (compound 2) or a significant length of time (compound 1), dried powder and DMSO solution. It counts as physicochemical. As to the method:
In this study, qualitative profile analysis was performed on the 30% EtOH crude extract of the leaves of E. hamiltonianus using HPLC. The isolated phytochemicals, 1–14, were used as standards and compared to the crude extract profile represented by a high-performance liquid chromatogram (Figure 3). […] With comparative UV area normalization, compound 2 was confirmed as a pure compound initially when isolated (Figure S3.8). […] For reconfirmation, LC-MS analyses of both the dried powdered form of the compound when isolated and the compound in DMSO solution were performed (Figure S3.9), both sets of results showing signs of degradation. Compound 2 was degraded into three separate peaks, and the original compound 2 indicated by m/z 759.2 was verified by LC-MS analysis, and the peaks of 2a and 2b were indicated by m/z 465.1 and 627, respectively. […] Due to the close resemblance of compound 2 to compound 1, it was investigated in the same manner after a significant length of time.

[5] abbreviates: BV-2 microglial cells, MTT assay, read-out: IC50 Value (µM) Cytotoxicity.

Usually IC50 stands for the midpoint of a concentration-inhibition curve. On to `OC[C@H]1O[C@@H](OC[C@H]2O[C@@H](OCc3ccccc3)[C@H](O)[C@@H](O)[C@@H]2O)[C@H](O)[C@@H](O)[C@@H]1O` [Compound 14, benzyl gentiobioside], for which the half-maximal inhibitory concentration (IC50) is 53.1 to 65.4 µM in series [1] (Homo sapiens, HeLa) and 17.4 ± 2.77 µM in series [2]. Moreover, the “Inhibitory effect on NO production (in words)” value in series [2] (LPS-stimulated BV-2 microglial cells) is recorded as “effectively downregulated; also recorded: good inhibitory effects”. The IC50 at 12 h in series [3] (setting [5]) is > 100 µM. Besides, in the series with iNOS, the “LPS-induced iNOS protein expression (in words)” value is “suppressed; also recorded: effectively downregulated”.
`O=c1occc2c(O)cc(O)cc12` [Compound 11, 5,7-dihydroxyisocoumarin]: the concentration for half-maximal inhibition (IC50) in series [2] is > 100 µM. In series [3] (setting [5]), the IC50 at 12 h is > 100 µM.
With `C[C@@H]1C[C@H]2[C@@H]3CCC4=CC(=O)C=C[C@]4(C)[C@@]3(F)[C@@H](O)C[C@]2(C)[C@@]1(O)C(=O)CO` [Dexamethasone, reference compound], the IC50 in series [2] was determined as 1.24 ± 0.104 µM. In series [3] (setting [5]), the half-inhibitory concentration (IC50) at 12 h was > 100 µM.
Turning to `O=C(O)/C=C/c1ccc(O)c(O[C@@H]2O[C@H](CO)[C@@H](O)[C@H](O)[C@H]2O)c1` [Compound 12, caffeic acid trans-3-O-β-D-glucopyranoside], the IC50 in series [1] (Homo sapiens, HeLa) was > 100 µM; in series [2], > 100 µM. Moreover, the 50% inhibitory concentration (IC50) at 12 h in series [3] (setting [5]) was > 100 µM.
Regarding `COc1cc2c(OC)c3c(c(-c4ccc5c(c4)OCO5)c2cc1OC)C(=O)OC3` [Justicidine A, reference compound], the IC50 in series [1] turned out to be 1 ± 0.043 µM.
With `COc1cc(-c2oc3cc(O[C@@H]4O[C@H](CO)[C@@H](O)[C@H](O)[C@H]4O)cc(O)c3c(=O)c2O[C@@H]2O[C@H](CO)[C@@H](O)[C@H](O)[C@H]2O)ccc1O` [Compound 5, isorhamnetin-3,7-di-O-β-D-glucopyranoside], the IC50 in series [2] is > 100 µM. Besides, the concentration for half-maximal inhibition (IC50) at 12 h in series [3] (setting [5]) was > 100 µM.
For the compound `CCCCOC(=O)C(CC(=O)O)OC(=O)C=Cc1ccc(O)cc1` (stereo not drawn) [Compound 10, p-coumaroylmalic acid 1-butyl ester], the IC50 in series [2] was > 100 µM. In addition, the IC50 at 12 h in series [3] (setting [5]) was > 100 µM.
Take `COc1cc([C@H]2OC[C@H]3[C@@H]2CO[C@@H]3c2cc(OC)c(O[C@@H]3O[C@H](CO)[C@@H](O)[C@H](O)[C@H]3O)c(OC)c2)cc(OC)c1O[C@@H]1O[C@H](CO)[C@@H](O)[C@H](O)[C@H]1O` [Compound 9, liriodendrin]: the IC50 at 12 h in series [3] is > 100 µM.
Consider `COC(=O)/C=C/c1ccc(O)c(O[C@@H]2O[C@H](CO)[C@@H](O)[C@H](O)[C@H]2O)c1` [Compound 13, methyl trans-3-O-(β-D-glucopyranosyl) caffeate], for which the half-maximal inhibitory concentration (IC50) in series [1] was 65.4 ± 6.71 µM; in series [1] (Homo sapiens, HeLa), 53.1 to 65.4 µM; in series [2], > 100 µM. In series [1] (Hela-swAPP cells), the “Inhibitory effect on Aβ production (in words)” value was “reduced Aβ levels”. In addition, the IC50 at 12 h in series [3] (setting [5]) was > 100 µM.
`COc1cc(-c2oc3cc(O[C@@H]4O[C@H](CO)[C@@H](O)[C@H](O)[C@H]4O)cc(O)c3c(=O)c2O[C@@H]2O[C@H](CO)[C@@H](O)[C@H](O)[C@H]2O[C@@H]2OC[C@@H](O)[C@H](O)[C@H]2O)ccc1O` [Compound 1, isorhamnet-in-3-O-(2″-O-(β-D-xylopyranosyl)-β-D-glucopyranoside)-7-O-β-D-glucopyranoside]: in series [2], the IC50 is > 100 µM. Also, the IC50 at 12 h in series [3] (setting [5]) was > 100 µM. Besides, in series [4], the “Degradation on storage (in words)” value is reported as “did not show any sign of degradation”.
Take `O=c1c(O[C@@H]2O[C@H](CO)[C@@H](O)[C@H](O)[C@H]2O)c(-c2ccc(O)c(O)c2)oc2cc(O)cc(O)c12` [Compound 7, isoquercetin]: the half-maximal inhibitory concentration (IC50) in series [2] was > 100 µM. The half-maximal inhibitory concentration (IC50) at 12 h in series [3] (setting [5]) was > 100 µM.
For the compound `O=c1c(O[C@@H]2O[C@H](CO)[C@@H](O)[C@H](O)[C@H]2O)c(-c2ccc(O)c(O[C@@H]3O[C@H](CO)[C@@H](O)[C@H](O)[C@H]3O)c2)oc2cc(O)cc(O)c12` [Compound 8, quercetin-3,3′-di-O-β-D-glucopyranoside], the IC50 in series [2] was > 100 µM. In series [3] (setting [5]), the IC50 at 12 h was > 100 µM.
Turning to `O=c1c(O[C@@H]2O[C@H](CO)[C@@H](O)[C@H](O)[C@H]2O[C@@H]2OC[C@@H](O)[C@H](O)[C@H]2O)c(-c2ccc(O)c(O)c2)oc2cc(O)cc(O)c12` [Compound 6, quercetin-3-O-sambubioside], the concentration for half-maximal inhibition (IC50) is > 100 µM in series [1] (Homo sapiens, HeLa) and > 100 µM in series [2]. In series [3] (setting [5]), the IC50 at 12 h was > 100 µM.
